Values after ≈ are worked out from the molar mass of the structure shown.
Target: T1, Saccharomyces cerevisiae α-glucosidase
T1 construct: gene MAL12; commercial enzyme from Sigma Chemical Co
Assay: pNPG hydrolysis, absorbance at […] nm
Format: biochemical
Details: p-NPG (10 mmol/L stock, 50 μL), 0.1 mol/L potassium phosphate pH 7, 37 °C, 20 min preincubation

[1] = value lies below the stated tested range (0.02-0.25, unit printed as μg/mL in footnote)

Row | SMILES | EC50 [1] [µg/mL] | EC50 [µg/mL]
1 | C=C(CC[C@@H](C(=O)O)[C@H]1CC[C@@]2(C)C3=CC[C@H]4C(C)(C)[C@@H](O)CC[C@]4(C)C3=CC[C@]12C)C(C)C [compound 7, dehydroeburicoic acid] | 18 ± 0.2 (≈ 38.4 µM) | –
2 | C=C(CC[C@@H](C)[C@H]1CC[C@H]2C3=C(C(=O)C[C@]12C)[C@@]1(C)CCC(=O)[C@@H](C)[C@@H]1CC3=O)[C@H](C)C(=O)O [compound 5, 25S-antcin B] | – | 210 ± 7.6 (≈ 448 µM)
3 | C=C(CC[C@@H](C)[C@H]1CC[C@H]2C3=C(C(=O)C[C@]12C)[C@@]1(C)CC[C@@H](O)[C@](C)(O)[C@@H]1C[C@@H]3O)[C@@H](C)C(=O)O [compound 2, 25R-antcin K] | – | 54 ± 0.4 (≈ 111 µM)
4 | C=C(CC[C@@H](C(=O)O)[C@H]1CC[C@@]2(C)C3=C(CC[C@]12C)[C@@]1(C)CC[C@H](O)C(C)(C)[C@@H]1CC3)C(C)C [compound 8, eburicoic acid] | 12 ± 0.4 (≈ 25.5 µM) | –
